From publication PMC10149896 (Acta Pharmaceutica Sinica. B, 2022)

Columns and labels:
UGT71E5 = biological target: T1, UGT71E5 (Carthamus tinctorius, UniProt A0A1P8C3B1); test: HPLC-MS conversion; format: biochemical; details: 0.4 mmol/L acceptor, 0.8 mmol/L UDP-Glc, pH 7.4
T1 sequence (A0A1P8C3B1 1-480): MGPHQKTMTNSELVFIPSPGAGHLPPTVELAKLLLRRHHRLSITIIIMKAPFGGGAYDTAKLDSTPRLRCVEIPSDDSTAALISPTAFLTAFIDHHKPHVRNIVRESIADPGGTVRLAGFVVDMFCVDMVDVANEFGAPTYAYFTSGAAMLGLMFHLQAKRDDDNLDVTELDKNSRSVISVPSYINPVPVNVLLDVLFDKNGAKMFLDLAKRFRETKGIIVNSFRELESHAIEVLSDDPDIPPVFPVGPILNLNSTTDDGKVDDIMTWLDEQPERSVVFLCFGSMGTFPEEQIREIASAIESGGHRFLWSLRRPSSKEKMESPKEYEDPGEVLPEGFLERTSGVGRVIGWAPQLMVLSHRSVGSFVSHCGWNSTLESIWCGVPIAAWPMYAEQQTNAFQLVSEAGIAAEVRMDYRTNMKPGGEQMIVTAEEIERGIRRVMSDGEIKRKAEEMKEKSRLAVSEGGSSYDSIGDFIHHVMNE

DoBBS8 = test: HPLC quantification of dihydroresveratrol, nonlinear regression; format: biochemical, Dendrobium officinale; details: malonyl-CoA 2.0 mmol/L fixed; 30 °C, 30 min

Km (DoBBS8) [µM] | SMILES | conversion rate (UGT71E5) [%]
 | Oc1ccc(CCc2cc(O)cc(O)c2)cc1 [compound 1, dihydro-resveratrol] | 94
61.8 | CC(C)(COP(=O)(O)OP(=O)(O)OC[C@H]1O[C@@H](n2cnc3c(N)ncnc32)[C@H](O)[C@@H]1OP(=O)(O)O)[C@@H](O)C(=O)NCCC(=O)NCCSC(=O)CCc1ccc(O)cc1 [p-hydroxyphenylpropionyl-CoA] | 
